Assay results from US20070249545A1, “DIHYDROFOLATE REDUCTASE INHIBITION BY EPIGALLOCATECHIN GALLATE COMPOUNDS” (priority 2004, published 2007).
Where two headings read alike, the source gives them in different places.

Tests used:
bovine liver DHFR = biological target: T1, bovine liver DHFR (Bos taurus, UniProt P00376); experiment: Kinetic analysis of inhibition of bovine liver DHFR; assay type: biochemical
T1 construct: from tissue; host or cells: bovine liver
T1 sequence (P00376 1-187): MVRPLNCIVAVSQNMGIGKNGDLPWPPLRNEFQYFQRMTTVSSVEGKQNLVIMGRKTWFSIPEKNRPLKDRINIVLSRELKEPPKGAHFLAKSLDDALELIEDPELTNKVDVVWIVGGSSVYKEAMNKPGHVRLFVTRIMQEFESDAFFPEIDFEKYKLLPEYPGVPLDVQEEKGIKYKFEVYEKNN
Method: The activity of DHFR was determined at 25° C. by following the decrease of NADPH and DHF by absorbance measurements at 340 nm (ε=11,800 M^−1 cm^−1) by using a Perkin-Elmer Lambda-2 spectrophotometer with cuvettes of 1.0 cm light-path.
Experiments were performed at pH 7.58 and 25° C. in a buffer containing 2-(N-morpholino)ethanesulfonic acid (MES, 25 mM), sodium acetate (25 mM), tris(hydroxymethyl)aminomethane (Tris 50 mM), and NaCl (100 mM). To prevent the oxidation of catechins, the reaction mixture contained 1 mM ascorbic acid. The pH of the reaction was measured before and after of the experiment. The assays were started by the addition of enzyme. In the absence of the enzyme, the rate of change of absorbance was negligible. […]
Progress curves for the slow, tight-binding inhibition of bovine liver DHFR by EGCG were determined by continuously monitoring the disappearance of NADPH and DHF after initiation of the reaction by the addition of 3.3 nM enzyme. Reaction mixtures contained buffer, NADPH (100 μM), DHF (20 μM) and EGCG. Assuming that the concentration of free inhibitor is not substantially altered by the formation of an enzyme-NADPH-inhibitor complex, the progress curve for the inhibition in the presence of saturating NADPH is described by Eqn. (1): P=vst+(v0−vs)(1−exp(−k′t))/k′
where vs, v0 and k′ represent the steady-state velocity, initial velocity and apparent first-order rate constant, respectively.
The values of k′ at different EGCG concentrations were obtained by non-linear regression analysis of the progress curves. KI and KI* denote the respective dissociation constants for the initial and equilibrium binding of inhibitors to the enzyme-NADPH complex (FIG. 5).

free rHDHFR = biological target: T2, free rHDHFR (Homo sapiens, UniProt P00374); experiment: Binding of EGCG to free DHFR by quenching of enzyme fluorescence; details: read-out: dissociation constant
T2 sequence (P00374 1-187): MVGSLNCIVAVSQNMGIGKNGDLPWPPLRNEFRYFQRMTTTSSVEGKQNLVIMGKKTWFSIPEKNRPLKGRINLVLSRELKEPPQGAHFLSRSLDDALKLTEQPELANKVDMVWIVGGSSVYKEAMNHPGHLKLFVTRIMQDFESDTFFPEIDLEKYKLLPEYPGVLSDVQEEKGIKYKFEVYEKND
Method: The binding of EGCG to free DHFR was determined by following the decrease in enzyme fluorescence that occurs on formation of the enzyme-inhibitor complex. […] The binding of EGCG quenches this fluorescence. The data for the resulting titration curves were used for dissociation constant determinations.

L1210 cells = experiment: EGCG cytotoxicity / growth of L1210 cells; assay type: cell-based, mouse
Method: L1210 cells were plated at a density of 10,000 cells/ml in 96-well plates with a “standard folate” RPMI 1640 medium supplemented with 10% FCS. Reversion experiments were carried out in an HT medium and/or by adding 50 μM ascorbic acid (AA). Cell injury was evaluated by a calorimetric assay for mitochondrial function using the MTT test.^29
The effect of different EGCG concentrations on L1210 cell growth after 29 h of treatment at two different folic acid concentrations was determined. The cells were previously adapted over a period of 2-3 days to grow in folate-free RPMI 1640 medium supplemented with 10% dialyzed FCS and 2 mM glutamine. This medium is subsequently referred to as LF (low folate). For the cytotoxicity assay, the cells were grown in LF media supplemented with folic acid (3 μM or 300 nM). Treatments were carried out in triplicate, and each experiment performed at least twice. Cell growth was determined by two different methods, Coulter counter Z2 and hemocytometer (FIG. 7). IC50 values were determined at each folic acid concentration added to the medium.
The growth-inhibitory effects of 10 μM EGCG at various folic acid concentrations were determined at two different time intervals. L1210 cells were cultured in a LF medium supplemented with the corresponding folic acid concentration. The data were obtained by using a Coulter counter and hemocytometer and expressed assuming a zero percentage of growth inhibition for untreated control (FIG. 8). Cells were maintained in the corresponding medium with 100 μg/ml of penicillin and streptomycin at 37° C. in a humid 7.5% CO2, […] environment for all the experiments.

S. maltophilia = experiment: Broth dilution MIC determination; assay type: cell-based, Stenotrophomonas maltophilia
Method: Eighteen strains of cotrimoxazole susceptible S. maltophilia were collected during the last year at the Hospital Universitario Virgen de la Arrixaca (Murcia, Spain) from clinical isolates. Bacteria were frozen at −70° C. in glycerol-meat medium and inoculated onto Columbia agar (Fluka Chemie GmbH, Madrid, Spain) supplemented with 5% of defibrinated sheep blood 48 and 24 h prior to susceptibility testing.
MICs for the 18 strains were determined by the broth dilution method at a final inoculum of 5×10^5 CFU/ml, according to the guidelines recommended by the NCCLS by using cation-adjusted Mueller-Hinton broth (Fluka). After incubation at 37° C. for 24 h, the lowest concentration of the two-fold serially diluted EGCG at which no visible growth occurred was defined as its MIC.

Jurkat T = experiment: Growth of Jurkat T lymphoma cells; assay type: cell-based, human
Method: To determine whether EGCG inhibits DHFR activity in vivo, two human cancer cell, (Caco-2 from colon cancer and Jurkat T a lymphoma cell line) were incubated with various concentrations of EGCG in a standard medium.

p16 = p16 methylation status in Jurkat T cells; assay type: cell-based, human; details: EGCG 20 μM, 7-days treatment
NF-κB = experiment: TNF-α-mediated activation of NF-κB (Western blot); assay type: cell-based; details: 24 hours, then TNF-α, IκBα, phospho-IκBα, Akt
Method: To check if the antifolate activity of EGCG is related to the suppression of activation of NF-κB, cells were grown in the presence of EGCG or MTX. After 24 hours, the cells were induced with TNF-α and the content of proteins related to NF-κB activation (IκBα, phospho-IκBα, Akt and phosphor-Akt) was checked by Western blot (FIG. 16A).

[1] = eighteen S. maltophilia isolates

(−)-epigallocatechin gallate [EGCG] was tested. Which k5 (bovine liver DHFR) did it give?
The k5 was 0.13 min⁻¹.

And the k5/k6 (bovine liver DHFR)?
The k5/k6 was 32.5 ratio.

What about the k6 (bovine liver DHFR) of the same substance?
Its k6 is 0.004 min⁻¹.

And the type of inhibition (bovine liver DHFR)?
Its type of inhibition is “slow tight-binding inhibitor”.

What about the Ki (bovine liver DHFR; equilibrium binding to enzyme-NADPH complex, read-out: KI*) of the same substance?
Its Ki is 0.0029 µM.

What about the Ki (bovine liver DHFR; initial binding to enzyme-NADPH complex, pH 7.58, 25° C., read-out: KI) of the same substance?
Its Ki is 0.109 µM.

What about the Kd (free rHDHFR) of the same substance?
Its Kd is 0.8 µM.

What about the “growth inhibition in HT medium containing ascorbic acid, NAC or SOD” value (L1210 cells; L1210, EGCG 20 μM) of the same substance?
Its value is “completely removed the inhibitory effect”.

And the “growth inhibition with ascorbic acid in the medium” value (L1210 cells; L1210, EGCG 20 μM, antioxidant ascorbic acid)?
The value was “partially lifted”.

And the “growth inhibition in HT medium, low folate” value (L1210 cells; L1210, LF medium (30 nM folic acid), EGCG 1 μM)?
The value was “completely reversed”.

And the “growth inhibition in HT medium” value (L1210 cells; L1210, hypoxanthine-thymidine (HT) medium, EGCG 20 μM)?
The value was “high level of inhibition reversal”.

What about the IC50 (L1210 cells; RPMI 1640 medium with 10% FCS (standard folate)) of the same substance?
The IC50 was 20 µM.

What about the MIC (S. maltophilia; S. maltophilia strain 1) of the same substance?
Its MIC is 64 µg/mL.

What about the MIC50 (S. maltophilia; [1]) of the same substance?
Its MIC50 is 32 µg/mL.

What about the MIC90 (S. maltophilia; [1]) of the same substance?
The MIC90 was 64 µg/mL.

What about the “MICs (range)” value (S. maltophilia; [1]) of the same substance?
Its value is 4 to 256 µg/mL.

And the apoptosis (Jurkat T)?
The apoptosis was “induction of apoptosis”.

What about the cell cycle effect (Jurkat T) of the same substance?
The cell cycle effect was “G0/G1 phase arrest”.

What about the “effects in HT medium and in the presence of folinic acid or thymine” value (Jurkat T) of the same substance?
Its value is “highly attenuated”.

And the IC50 (Jurkat T; standard medium, read-out: IC50 of cell growth)?
Its IC50 is 10 µM.

And the p16 methylation pattern (p16)?
Its p16 methylation pattern is “changed from methylated to unmethylated”.

And the “effects on proteins related to NF-κB activation, with folinic acid” value (NF-κB)?
The value was “highly reversed by folinic acid”.
